Tests used:
[1] = Stability test (exposure to humidity, XRPD); assay type: physicochemical; details: 25° C.
Experimental: Stability tests were carried out on Aliskiren hemifumarate, amorphous solid of this invention and Aliskiren hemifumarate, amorphous solid obtained as described in WO2008/061622, maintaining the samples at 25° C., 75% RH. […] The same samples were exposed to 25° C., 60% RH.

[2] = Compressibility test on tablets; assay type: physicochemical
Experimental: A set of tablets was prepared using different compression forces. A compressibility test was carried out on these.

## COCCCOc1cc(C[C@@H](C[C@H](N)[C@@H](O)C[C@H](C(=O)NCC(C)(C)C(N)=O)C(C)C)C(C)C)ccc1OC [(2S,4S,5S,7S)-5-amino-N-(3-amino-2,2-dimethyl-3-oxypropyl)-4-hydroxy-7-[[4-methoxy-3-(3-methoxypropoxy)pheny]methyl]-8-methyl-2-propan-2 ilnonanamide]
[1]; 60% RH, 5 days, curve A basal vs curve B, FIG. 15
  Typical nature of the diffractogram (XRPD pattern) after exposure: lost
[1]; 75% RH, after 2 hours
  Change of physical form of the sample: changed from solid to viscous liquid form
[2]; comparison of Tables 7 and 8
  Rupture strength compared with tablets of amorphous solid obtained as described in WO2008/061622: higher
[2]; tablet #1, compression strength 11.83 kN
  Rupture Strength: 4.5 N
[2]; tablet #2, compression strength 5.83 kN
  Rupture Strength: 4 N
[2]; tablet #3, compression strength 16.45 kN
  Rupture Strength: 2 N
[2]; tablet #4, compression strength 10.85 kN
  Rupture Strength: 4 N
[2]; tablet #5, compression strength 19.43 kN
  Rupture Strength: 3.5 N

## COCCCOc1cc(C[C@@H](C[C@H](N)[C@@H](O)C[C@H](C(=O)NCC(C)(C)C(N)=O)C(C)C)C(C)C)ccc1OC
[2]; tablet #1, compression strength 22.27 kN
  Rupture Strength: 1.5 N
[2]; tablet #2, compression strength 23.82 kN
  Rupture Strength: 2 N
[2]; tablet #3, compression strength 24.15 kN
  Rupture Strength: 1.5 N
[2]; tablet #4, compression strength 6.80 kN
  Rupture Strength: 2 N
[2]; tablet #5, compression strength 7.95 kN
  Rupture Strength: 2 N
[2]; tablet #6, compression strength 10.10 kN
  Rupture Strength: 1.5 N
[2]; tablet #7, compression strength 11.55 kN
  Rupture Strength: 2.2 N
[2]; tablet #8, compression strength 7.88 kN
  Rupture Strength: 2.5 N
[2]; tablet #9, compression strength 10.15 kN
  Rupture Strength: 2 N
[2]; tablet #10, compression strength 13.18 kN
  Rupture Strength: 2 N
[2]; tablet #11, compression strength 15.60 kN
  Rupture Strength: 2 N
[2]; tablet #12, compression strength 14.12 kN
  Rupture Strength: 2 N
